# Assay results taken from US20160320417A1, “METHODS AND KITS FOR DETERMINING RISK FOR DEVELOPING ALZHEIMER'S DISEASE AND PREVENTION OR TREATMENT THEREOF” (Loma Linda University, priority 2013, published 2016).
# How the values were obtained:
# [1] = clinical trials, cited from earlier work; for mitigation of clinical AD progression: drugs aimed at preventing Aβ aggregates from forming into SPs
# peripheral blood cells = experiment: filipin staining of peripheral blood cells measured by flow cytometry after inducing cholesterol dysregulation; type: cell-based; conditions: peripheral blood cells (PBCs) treated with the compound; FIG. 7
# Description: In some embodiments, peripheral blood cells can be isolated and filipin levels measured by flow cytometry. This can allows for the cells to be isolated inexpensively and at minimal risk to the patient from simple venipuncture rather than requiring the invasive punch biopsy method for collection of fibroblasts as used and described in the results presented herein. A venipuncture can be performed with a venipuncture assembly including, for example, but not limited to, a plastic hub, a hydrodermic needle, a vacuum tube, a syringe, a butterfly needle, and/or other blood collection or vanipuncture devices known in the art. Accordingly, the ability to isolate peripheral blood cells and measure the filipin levels by flow cytometry can facilitate the commercialization of the testing procedure and techniques described herein for preventing and detecting disease. The isolation of peripheral blood cells and measuring of the filipin levels by flow cytometry was tested in two ways. […] Cholesterol dysregulation was induced by treating the cells with Ul 8666A, a compound that inhibits cholesterol synthesis and intracellular trafficking.
Compound,mitigation of clinical AD progression [1],other results
NCCCS(=O)(=O)O [homotaurine],failed to mitigate clinical AD progression,–
C[C@@H](C(=O)O)c1ccc(-c2ccccc2)c(F)c1 [tarenflurbil],–,"benefit to cognitive function ([1]; compounds targeting γ-secretase, even when reducing Aβ levels): no benefit to cognitive function"
CCN(CC)CCO[C@H]1CC[C@@]2(C)C(=CC[C@@H]3[C@@H]2CC[C@]2(C)C(=O)CC[C@@H]32)C1 [U18666A],–,effect on filipin staining (filipin fluorescence) (peripheral blood cells): dose-dependent effect
O[C@H]1[C@H](O)[C@@H](O)[C@H](O)[C@@H](O)[C@@H]1O [scyllo-inositol],failed to mitigate clinical AD progression,–
